One test addresses T1, Adenosine receptor A1 (Rattus norvegicus, UniProt P25099).
T1 sequence (P25099 whole entry): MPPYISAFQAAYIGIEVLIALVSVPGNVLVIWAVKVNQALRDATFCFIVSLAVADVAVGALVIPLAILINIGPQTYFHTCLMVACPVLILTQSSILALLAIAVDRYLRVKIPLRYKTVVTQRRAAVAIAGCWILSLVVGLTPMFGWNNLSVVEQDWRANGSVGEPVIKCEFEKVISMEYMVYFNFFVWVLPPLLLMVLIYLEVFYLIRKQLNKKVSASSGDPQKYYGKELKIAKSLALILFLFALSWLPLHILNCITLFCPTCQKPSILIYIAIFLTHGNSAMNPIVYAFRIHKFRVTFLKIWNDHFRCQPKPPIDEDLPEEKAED

A further test deals with Adenosine receptor A2a (Rattus norvegicus, UniProt P30543).

What is called Ki is a dissociation constant, usually derived from enzyme kinetics or from competition with a known ligand.

Sequence of Adenosine receptor A2a (P30543 whole entry): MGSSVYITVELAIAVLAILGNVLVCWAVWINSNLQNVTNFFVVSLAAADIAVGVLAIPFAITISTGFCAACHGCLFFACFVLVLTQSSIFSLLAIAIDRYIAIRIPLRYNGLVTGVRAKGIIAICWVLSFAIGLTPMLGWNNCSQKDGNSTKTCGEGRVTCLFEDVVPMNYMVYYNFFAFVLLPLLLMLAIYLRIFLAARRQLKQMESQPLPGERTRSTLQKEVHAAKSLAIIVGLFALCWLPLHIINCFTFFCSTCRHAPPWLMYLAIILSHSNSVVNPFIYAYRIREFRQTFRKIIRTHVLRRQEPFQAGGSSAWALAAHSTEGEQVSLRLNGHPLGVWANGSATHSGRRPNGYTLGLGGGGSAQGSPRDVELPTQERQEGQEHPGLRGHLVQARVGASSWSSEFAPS

As to `Cn1cnc2[nH]c(=O)[nH]c(=O)c21` [7-Methylxanthine], the inhibition constant Ki at Adenosine receptor A1 and at Adenosine receptor A2a was more than 10 µM throughout.

In turn, `NCC1OC(n2cnc3c(N)ncnc32)C(O)C1O` (stereo not given) [2-Aminomethyl-5-(6-amino-purin-9-yl)-tetrahydro-furan-3,4-diol] showed a Ki on Adenosine receptor A2a of 38.5 µM. This lies in the double-digit micromolar range.

On to `C[S+](CC[C@H](N)C(=O)[O-])C[C@H]1O[C@@H](n2cnc3c(N)ncnc32)[C@H](O)[C@@H]1O` (stereo partly drawn) [(2S)-2-amino-4-({[(2S,3S,4R,5R)-5-(6-amino-9H-purin-9-yl)-3,4-dihydroxyoxolan-2-yl]methyl}(methyl)sulfanylium)butanoate], for which the inhibition constant (Ki) stood at 0.675 µM on Adenosine receptor A1 and 2.78 µM on Adenosine receptor A2a.

With `CCNC(=O)[C@H]1O[C@@H](n2cnc3c(=O)[nH]cnc32)[C@H](O)[C@@H]1O` [5'-N-ethylcarboxamidoinosine], the Ki at Adenosine receptor A1 and on Adenosine receptor A2a was more than 10 µM in each case.

On to `Cc1cn([C@H]2C[C@H](O)[C@@H](CO)O2)c(=O)[nH]c1=O` [thymidine], for which the Ki on Adenosine receptor A1 and at Adenosine receptor A2a was more than 10 µM each time.

Take `Nc1ncnc2c1ncn2[C@@H]1O[C@H](COP(=O)(O)O)[C@@H](O)[C@H]1O` [adenosine 5 -monophosphate]: on Adenosine receptor A2a, the Ki is more than 10 µM.

With `Nc1ncnc2c1ncn2[C@@]1(CO)O[C@H](CO)[C@@H](O)[C@H]1O` [beta-D-Psicofuranosyladenine], the inhibition constant Ki on Adenosine receptor A1 and at Adenosine receptor A2a was more than 10 µM throughout.

For the molecule `O=c1[nH]c(=O)c2[nH]c(Cl)nc2[nH]1` [CAS_13548-68-0], the inhibitory constant (Ki) on Adenosine receptor A1 and at Adenosine receptor A2a was more than 10 µM throughout.

`OCC1OC(n2cnc3c(S)ncnc32)C(O)C1O` (stereo not given) [NSC_1867]: the inhibitory constant (Ki) at Adenosine receptor A1 was more than 10 µM.

Consider `O=c1[nH]c(=O)c2ncn(C3OC(COP(=O)(O)O)C(O)C3O)c2[nH]1` (stereo not given) [CAS_146-80-5], for which the Ki on Adenosine receptor A1 and on Adenosine receptor A2a was more than 10 µM each time.

`CO[C@@H]1[C@H](O)[C@@H](CO)O[C@H]1n1cnc2c(N)ncnc21`: the Ki at Adenosine receptor A1 and at Adenosine receptor A2a was more than 10 µM throughout.

For `Nc1ncnc2c1ncn2[C@H]1C[C@H](O)[C@@H](CO)O1` [2'deoxyadenosine], the inhibitory constant (Ki) at Adenosine receptor A1 and on Adenosine receptor A2a was more than 10 µM throughout.

On to `Nc1ncnc2c1ncn2[C@@H]1O[C@H](CO)C[C@H]1O` [3'-Deoxyadenosine (cordycepin)], for which the inhibitory constant (Ki) on Adenosine receptor A1 and at Adenosine receptor A2a was more than 10 µM each time.

Consider `Cn1cnc2c(=O)[nH]c(=O)n(C)c21` [3,9-dimethyl-3,9-dihydro-1h-purine-2,6-dione], for which the Ki on Adenosine receptor A1 and on Adenosine receptor A2a was more than 10 µM in each case.

Consider `Nc1ccn([C@@H]2O[C@H](COP(=O)(O)OP(=O)(O)O)[C@@H](O)[C@H]2O)c(=O)n1` [5'-CDP], for which the Ki on Adenosine receptor A1 and at Adenosine receptor A2a was more than 10 µM each time.

As for `CCCCCC[C@H]([C@H](C)O)n1cnc2c(N)ncnc21` (relative stereo) [3-(6-amino-9H-purin-9-yl)nonan-2-ol], the inhibition constant Ki is 0.455 µM at Adenosine receptor A1 and more than 10 µM on Adenosine receptor A2a.

On to `O=c1ccn(C2OC(COP(=O)(O)OP(=O)(O)O)C(O)C2O)c(=O)[nH]1` (stereo not given) [hydrogen ({[5-(2,4-dioxo-1,2,3,4-tetrahydropyrimidin-1-yl)-3,4-dihydroxyoxolan-2-yl]methylphosphonato}oxy)phosphonate], for which the Ki on Adenosine receptor A1 and at Adenosine receptor A2a was more than 10 µM throughout.

Consider `Nc1ncnc2c1nc(Br)n2C1OC(CO)C(O)C1O` (stereo not given) [8-Bromoadenosine], for which the figures for the Ki at Adenosine receptor A1 and on Adenosine receptor A2a were more than 10 µM and 22.7 µM, respectively.

`Nc1nc2c(ncn2[C@H]2O[C@@H](COP(=O)(O)O)[C@H](O)[C@@H]2O)c(=O)[nH]1` [NSC_6804]: the values for the Ki at Adenosine receptor A1 and at Adenosine receptor A2a were 27.8 µM and 85.1 µM, respectively.

As to `Cn1c(=O)[nH]c2c(ncn2C)c1=O` [1,9-Dimethylxanthine], the inhibition constant Ki at Adenosine receptor A1 and at Adenosine receptor A2a was more than 10 µM each time.

Take `Nc1ncnc2c1N([C@H]1O[C@@H](CO)[C@H](O)[C@@H]1O)CN2` [T-7-Riboside]: the Ki at Adenosine receptor A1 worked out at 27 µM.

Consider `Nc1nc(S)c2ncn(C3OC(CO)C(O)C3O)c2n1` (stereo not given) [2-azanyl-9-[5-(hydroxymethyl)-3,4-bis(oxidanyl)oxolan-2-yl]-3H-purine-6-thione], for which the inhibitory constant (Ki) at Adenosine receptor A1 and on Adenosine receptor A2a was more than 10 µM throughout.

(Values after BindingDB's records for PubMed 8022403 (National Institute of Diabetes, Digestive and Kidney …, 1994).)
